The values that follow are results of earlier work, collected in US20240156991A1, “STABLE FORMULATIONS OF INDOCYANINE GREEN” (PROVEPHARM LIFE SOLUTIONS, priority 2021, published 2024).

On to `CC1(C)C(/C=C/C=C/C=C/C=C2\N(CCCCS(=O)(=O)O)c3ccc4ccccc4c3C2(C)C)=[N+](CCCCS(=O)(=O)O)c2ccc3ccccc3c21` [ICG, Indocyanine green], for which the “reduction of absorbance at spectral peak” value (after 10 hours of storage in water and direct light) is given as 10%. The fluorescence intensity lost (stored at 4° C. in the dark, three days) was 20%.
